Some test systems named below: HCT-15; MCF7; LOX IMVI; MDA-MB-435; COLO 205; Hs-578T; ACHN; UACC-257; SK-MEL-28; SF-539; NCI-H226; EKVX; OVCAR-4; A549; SF-295; K562; SK-MEL-5; MDA-MB-231; SK-MEL-2; IGROV-1.
Holding throughout (experiment): NCI tumour cell line growth inhibition, 48 h

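Each compound was tested at five concentrations against cells in 96-well plates for 48 hours. GI50 = concentration required for 50% inhibition of growth.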 Activity calls are given as the source filed them. No stated cut-off is given here; in the data, active = GI50 up to about 1.1 µM and inactive = higher.

With `Cc1nc2ccc(NCCN(C)C)c3c(=O)c4ccccc4n1c23`, the GI50 with HCT-15 is 1.25 µM; with MCF7, 3.3 µM (inactive); in the assay on LOX IMVI, 0.9 µM (active); in the assay with MDA-MB-435 it was 2.09 µM (inactive); with COLO 205, 1.17 µM (inactive); in the assay with Hs-578T, 2.55 µM (inactive). Further, the GI50 is 1.52 µM (inactive) in the assay on ACHN; 4.65 µM (inactive) in the assay with UACC-257; 8.22 µM (inactive) in the assay with SK-MEL-28; 2.74 µM (inactive) in the assay with SF-539; 1.56 µM (inactive) in the assay on NCI-H226; 3.05 µM (inactive) with EKVX. For the same compound, the GI50 with OVCAR-4 is 1.83 µM (inactive); with A549 it was 1.16 µM (inactive); in the assay on SF-295, 1.84 µM (inactive); in the assay with K562, 1.39 µM (inactive); with SK-MEL-5, 2.21 µM (inactive); with MDA-MB-231, 1.05 µM (active). Besides, the GI50 in the assay with SK-MEL-2 is 5.47 µM (inactive); in the assay on IGROV-1, 1.75 µM (inactive).

Consider `c1ccc2c(c1)CCCN1CCc3ccccc3C21` (stereo not given), for which the GI50 is > 100 µM in the assay with HCT-15; > 100 µM (inactive) with MCF7; 29.6 µM (inactive) with LOX IMVI; 19.8 µM (inactive) in the assay on MDA-MB-435; 46.7 µM (inactive) in the assay with COLO 205; > 100 µM (inactive) in the assay with Hs-578T. Besides, the GI50 with ACHN was 68.9 µM (inactive); in the assay with UACC-257, 77.1 µM (inactive); in the assay with SK-MEL-28, 31.4 µM (inactive); with SF-539, 24 µM (inactive); with NCI-H226, 33.3 µM (inactive); in the assay with EKVX, 39.9 µM (inactive). In addition, the GI50 is 9.46 µM (inactive) in the assay on OVCAR-4; 60.1 µM (inactive) in the assay with A549; 40.2 µM (inactive) in the assay on SF-295; 30 µM (inactive) with K562; 23.3 µM (inactive) in the assay on SK-MEL-5; 48.1 µM (inactive) in the assay with MDA-MB-231. Also, the GI50 was 96.6 µM (inactive) in the assay with SK-MEL-2 and 40.3 µM (inactive) in the assay with IGROV-1.

For the compound `CC1=C(C(=O)NNC(=O)C(N)=O)CC(C(=O)NNC(=O)C(N)=O)=C(C)N1`, the GI50 in the assay on HCT-15 is > 100 µM; in the assay with MCF7, > 100 µM (inactive); in the assay on LOX IMVI, > 100 µM (inactive); in the assay with MDA-MB-435 it was > 100 µM (inactive); with COLO 205, > 100 µM (inactive); in the assay on Hs-578T, > 100 µM (inactive). The GI50 in the assay with ACHN, with UACC-257, with SK-MEL-28, in the assay on SF-539, in the assay with NCI-H226 and in the assay with EKVX was > 100 µM (inactive) throughout. Besides, the GI50 in the assay on OVCAR-4, in the assay on A549, in the assay on SF-295, in the assay with K562, in the assay on SK-MEL-5 and in the assay on MDA-MB-231 was > 100 µM (inactive) in each case. The GI50 with SK-MEL-2 and in the assay with IGROV-1 was > 100 µM (inactive) each time.

With `CCC1(c2ccc(N)cc2)CCC(=O)NC1=O` (stereo not given) [AMINOGLUTETHIMIDE], the GI50 in the assay with HCT-15 is 2380 µM; with MCF7, 3010 µM (inactive); with LOX IMVI it was 2770 µM (inactive); with MDA-MB-435 it was > 2740 µM (inactive); with COLO 205, 1470 µM (inactive); with Hs-578T, 1520 µM (inactive). In addition, the GI50 with ACHN is 2490 µM (inactive); in the assay on UACC-257, 2650 µM (inactive); in the assay on SK-MEL-28 it was 3610 µM (inactive); in the assay on SF-539, 3240 µM (inactive); in the assay with NCI-H226 it was 1880 µM (inactive); in the assay with EKVX it was 3880 µM (inactive). For the same compound, the GI50 with OVCAR-4 was 1970 µM (inactive); with A549 it was 2880 µM (inactive); in the assay on SF-295 it was 1880 µM (inactive); with K562, 2080 µM (inactive); with SK-MEL-5 it was 2090 µM (inactive); with MDA-MB-231, 2610 µM (inactive). For the same compound, the GI50 with SK-MEL-2 was 3510 µM (inactive); in the assay on IGROV-1, 3450 µM (inactive).

For `CN1N=C(c2ccncc2)OC1c1ccc(C(F)(F)F)cc1` (stereo not given), the GI50 is > 100 µM in the assay on HCT-15; > 100 µM (inactive) in the assay with MCF7; > 100 µM (inactive) in the assay with LOX IMVI; > 100 µM (inactive) in the assay with MDA-MB-435; > 100 µM (inactive) in the assay with COLO 205; > 100 µM (inactive) in the assay on Hs-578T. Besides, the GI50 in the assay with ACHN was > 100 µM (inactive); in the assay on UACC-257, > 100 µM (inactive); in the assay with SK-MEL-28, > 100 µM (inactive); in the assay with SF-539, > 100 µM (inactive); in the assay on NCI-H226, 39.1 µM (inactive); with EKVX, 44.6 µM (inactive). Further, the GI50 in the assay with OVCAR-4 is > 100 µM (inactive); in the assay on A549, > 100 µM (inactive); in the assay with SF-295 it was > 100 µM (inactive); with K562, > 100 µM (inactive); in the assay on SK-MEL-5 it was > 100 µM (inactive); in the assay with MDA-MB-231, 63.5 µM (inactive). The GI50 in the assay on SK-MEL-2 and with IGROV-1 was > 100 µM (inactive) throughout.

Regarding `NC(=O)N/N=C1\CC2C3CC4C2C4C13` (stereo not given), the GI50 in the assay with HCT-15 is > 100 µM; in the assay with MCF7, > 100 µM (inactive); with LOX IMVI, > 100 µM (inactive); in the assay with MDA-MB-435 it was > 100 µM (inactive); with COLO 205, > 100 µM (inactive); in the assay on Hs-578T, > 100 µM (inactive). The GI50 in the assay with ACHN, in the assay with UACC-257, in the assay with SK-MEL-28, with SF-539, with NCI-H226 and in the assay with EKVX was > 100 µM (inactive) throughout. The GI50 in the assay on OVCAR-4 is 91 µM (inactive); in the assay with A549, > 100 µM (inactive); in the assay with SF-295, > 100 µM (inactive); with K562, > 100 µM (inactive); in the assay with SK-MEL-5 it was > 100 µM (inactive); in the assay on MDA-MB-231, > 100 µM (inactive). Besides, the GI50 in the assay with SK-MEL-2 and in the assay on IGROV-1 was > 100 µM (inactive) in each case.

Turning to `CC(=O)NC1C(OCc2ccccc2)OC(CO)C(O)C1OCC(=O)NC(C)C(=O)NC(CCC(=O)NCCCCCNc1c2ccccc2nc2cccc([N+](=O)[O-])c12)C(N)=O` (stereo not given), the GI50 with HCT-15 is < 0.0001 µM; in the assay on MCF7, < 0.0001 µM (active); in the assay with LOX IMVI it was 0.00169 µM (active); with MDA-MB-435 it was < 0.0001 µM (active); in the assay on COLO 205, < 0.0001 µM (active); with Hs-578T, < 0.01 µM (active). Besides, the GI50 in the assay on ACHN is < 0.0001 µM (active); with UACC-257, < 0.0001 µM (active); in the assay on SK-MEL-28 it was < 0.0001 µM (active); in the assay on SF-539, < 0.0001 µM (active); in the assay with NCI-H226 it was 0.000202 µM (active); in the assay with EKVX it was 0.00197 µM (active). Moreover, the GI50 was 0.00074 µM (active) in the assay with OVCAR-4; < 0.0001 µM (active) with A549; < 0.0001 µM (active) in the assay with SF-295; < 0.0001 µM (active) in the assay on K562; < 0.0001 µM (active) in the assay with SK-MEL-5; < 0.0001 µM (active) in the assay with MDA-MB-231. Besides, the figures for the GI50 with SK-MEL-2 and in the assay with IGROV-1 were < 0.0001 µM (active) and 0.00102 µM (active), respectively.

With `Cc1cc(C)c2c(n1)S(=O)(=O)N(CCCN1CCN(c3cccc(C(F)(F)F)c3)CC1)C(C(=O)c1ccc(Cl)cc1)=C2O`, the GI50 is 1.85 µM in the assay on HCT-15; 3.26 µM (inactive) in the assay on MCF7; 0.515 µM (active) in the assay with LOX IMVI; 3.18 µM (inactive) in the assay on MDA-MB-435; 1.84 µM (inactive) in the assay on COLO 205; 5.55 µM (inactive) in the assay on Hs-578T. Moreover, the GI50 in the assay on ACHN was 3.48 µM (inactive); in the assay on UACC-257, 2.31 µM (inactive); in the assay with SK-MEL-28, 5.21 µM (inactive); with SF-539, 3.84 µM (inactive); in the assay with NCI-H226 it was 2.45 µM (inactive); with EKVX, 3.03 µM (inactive). Moreover, the GI50 was 3.06 µM (inactive) with OVCAR-4; 2.74 µM (inactive) in the assay with A549; 3.29 µM (inactive) in the assay on SF-295; 2.2 µM (inactive) in the assay with K562; 2.22 µM (inactive) in the assay with SK-MEL-5; 4.4 µM (inactive) in the assay on MDA-MB-231. In addition, the figures for the GI50 in the assay with SK-MEL-2 and in the assay on IGROV-1 were 3.91 µM (inactive) and 3.26 µM (inactive), respectively.

On to `N#Cc1c(C#N)c(SSc2c(C#N)c(C#N)c(N)n2-c2ccc(F)cc2)n(-c2ccc(F)cc2)c1N`, for which the GI50 is 2.03 µM in the assay on HCT-15; 2.9 µM (inactive) in the assay with MCF7; 26.4 µM (inactive) in the assay on LOX IMVI; 8.11 µM (inactive) in the assay with MDA-MB-435; 1.95 µM (inactive) with COLO 205; 25.8 µM (inactive) in the assay with Hs-578T. Further, the GI50 in the assay on ACHN is 3.66 µM (inactive); in the assay with UACC-257, 5.93 µM (inactive); in the assay on SK-MEL-28, 3.72 µM (inactive); in the assay with SF-539, 19.2 µM (inactive); in the assay with NCI-H226, 20.8 µM (inactive); in the assay on EKVX, 2.2 µM (inactive). The GI50 is 2.77 µM (inactive) in the assay on OVCAR-4; 18.9 µM (inactive) in the assay on A549; 17.9 µM (inactive) in the assay with SF-295; 1.76 µM (inactive) in the assay on K562; 17.4 µM (inactive) in the assay with SK-MEL-5; 19.6 µM (inactive) in the assay with MDA-MB-231. Besides, the GI50 was 22.4 µM (inactive) in the assay with SK-MEL-2 and 16.7 µM (inactive) in the assay on IGROV-1.

The values are drawn from ChEMBL document CHEMBL1201862, “PubChem BioAssay data set” (2004).
